Experimental data as given in patent US20100209345A1, “Fluorinated Ligands for Targeting Peripheral Benzodiazepine Receptors” (Australian Nuclear Science & Technology Organisation, priority 2006, published 2010).

Experiments:
[1] = Biodistribution of 18F-labelled tracers in rats; assay type: in vivo; conditions: SD rats; for Biodistribution: Bone / Biodistribution: Kidney / Biodistribution: Olfactory bulbs / Biodistribution: Adrenals: decay correction not stated
Summary of the method: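 Sprague-Dawley rats received 18F tracer, and brain and peripheral tissues were analysed at 15 and 30 min and 1 and 4 h post-injection. For specificity, rats were pretreated 5 min beforehand with PK11195 or Ro 5-4864 (PBR) or flumazenil (CBR), each at 1 mg/kg.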

[2] = molecular target: T1, peripheral benzodiazepine receptors (Rattus norvegicus, UniProt P16257); experiment: In vivo blocking / competition of tracer uptake by pre-treatment with PBR and CBR ligands; conditions: rats
T1 construct: high uptake in the tissues which have known PBR sites; from tissue; host or cells: organs of living SD rats (brain and peripheral tissues), in vivo
Experimental: The criteria for significance were **p<0.01 (highly significant) and *p<0.05 (significant). No stars implies not statistical difference from normals or controls.
The biodistribution of PBR132* was undertaken in SD rats and analysis up to 4 h p.i. in the brain and peripheral tissues was performed. The specificity and selectivity of the tracer were assessed by pre-treatment with PBR and Central benzodiazepine receptor (CBR) specific ligands (1 mg/kg) 5 min prior to injection of PBR132*.
The biodistribution of PBR 147* was performed in SD rats and brain and peripheral tissues were analysised at 15, 30 min, 1, and 4 h p.i. The specificity and selectivity of the tracer was assessed by pre-treatment of the animals with the PBR ligands PK11195 and Ro 5-4864 and with Flumazenil for CBR at 1 mg/kg 5 min prior to injection of PBR 147*
The biodistribution of PBR102* and PBR111* were performed in SD rats and brain and peripheral tissues analysed at 15, 30 min, 1, and 4 h p.i. The specificity and selectivity of the tracers were assessed by pre-treatment with the PBR ligands PK11195 and Ro 5-4864 and with Flumazenil for CBR at 1 mg/kg 5 min prior to injection of the corresponding tracers.
The specificity and selectivity of the tracers were assessed by pre-treatment with the PBR ligands PK11195 and Ro 5-4864 and with Flumazenil for CBR at 1 mg/kg 5 min prior to injection of the corresponding tracers.

[3] = molecular target: central benzodiazepine receptors; experiment: In vitro binding, [3H]-Flumazenil, brain cortex membrane preparation; conditions: [3H]-Flumazenil (2 nM), 25° C., 45 min, read-out: CBR IC50
Experimental: (§1) Non-specific binding was determined with Flumazenil (20 μM). In both cases, incubations were terminated by rapid filtration through Whatman GF/B glass fibre. Filters were immediately washed 3 times with 5 mL ice-cold 50 mM Tris/HCl at pH 7.4. Filters were counted in a β-scintillation counter (Packard) to measure the amount of bound radioactivity. The IC50 of the compounds for the peripheral benzodiazepine binding site and the central benzodiazepine receptor were calculated using Kell 6 software.

[4] = molecular target: T2, peripheral benzodiazepine binding site (Rattus norvegicus, UniProt P16257); experiment: In vitro binding, [3H]-PK11195, kidney membrane preparation; conditions: PBR IC50 (nM), [3H]-PK11195 (2 nM), 4° C., 1 h
T2 construct: diluted kidney membrane preparation (200 μg); from tissue; host or cells: kidney membrane preparation
Experimental: Non-specific binding was determined with PK11195 (10 μM).
as §1

Compound | Biodistribution: Bone ([1]; 15 min) | Biodistribution: Kidney ([1]; 15 min) | Biodistribution: Olfactory bulbs ([1]; 15 min) | Heart uptake maintained throughout the experiment ([1]; 15 min to 4 h) | Biodistribution: Adrenals ([1]; 30 min) | Biodistribution: Adrenals ([1]; 4 hours) | Biodistribution: Bone ([1]; 4 hours) | Biodistribution: Kidney ([1]; 4 hours) | Biodistribution: Olfactory bulbs ([1]; 4 hours) | Blood activity level / concentration in the blood over the 4 h study period ([1]; throughout 15 min to 4 h) | Tracer uptake after pre-treatment with PK 11195 ([2]; PK 11195 1 mg/kg 5 min prior to tracer, PBR-expressing tissues (brain/peripheral organs, adrenals apart)) | Tracer uptake in the adrenals after pre-treatment with PK 11195 ([2]; PK 11195 1 mg/kg 5 min prior to tracer, adrenals) | Tracer uptake after pre-treatment with Ro 5-4864 ([2]; Ro 5-4864 1 mg/kg 5 min prior to tracer, PBR-expressing tissues (brain/peripheral organs, adrenals apart)) | Tracer uptake in the adrenals after pre-treatment with Ro 5-4864 ([2]; Ro 5-4864 1 mg/kg 5 min prior to tracer, adrenals) | Tracer uptake after pre-treatment with flumazenil (central benzodiazepine ligand) ([2]; flumazenil 1 mg/kg 5 min prior to tracer, brain or peripheral organs) | chromatographic logP (LogP HPLC) | IC50 [3] | IC50 [4]
CN(C(=O)Cc1c(-c2ccc(OCCCF)cc2)nc2c(Cl)cc(Cl)cn12)c1ccccc1 [PBR 147, 2-(2-(4-(3-fluoropropoxy)phenyl)-6,8-dichloroimidazo[1,2-a]pyridin-3-yl)-N-methyl-N-phenylacetamide] | 1 % ID/g | 5 % ID/g | 0.66 % ID/g | 7% | 9 % ID/g | 11 % ID/g | 2.9 % ID/g | 3.6 % ID/g | 0.26 % ID/g | significantly lower | decreased | increase | decreased | increase | no effect | 4.31 ± 0.13 | 4090 nM | 7.4 nM
CCN(CC)C(=O)Cc1c(-c2ccc(C(C)(C)C)cc2)nc2ccc(F)nn12 [PBR 132, 2-(2-(4-tert-butylphenyl)-6-fluoroimidazo[1,2-b]pyridazin-3-yl)-N,N-diethylacetamide] | – | – | – | – | – | – | – | – | – | – | – | – | – | – | – | 3.6 ± 0.11 | 343 nM | 38 nM
CC(C)NC(=O)Cc1c(-c2ccc(OCCF)cc2)nc2ccc(Cl)cn12 [PBR110, 2-(2-(4-(2-fluoroethoxy)phenyl)-6-chloroimidazo[1,2-a]pyridin-3-yl)-N-isopropylacetamide] | – | – | – | – | – | – | – | – | – | – | – | – | – | – | – | 2.74 ± 0.09 | 2740 nM | 14.1 nM
CCN(C)C(=O)Cc1c(-c2ccc(OCCF)cc2)nc2ccc(Cl)cn12 [PBR107, 2-(2-(4-(2-fluoroethoxy)phenyl)-6-chloroimidazo[1,2-a]pyridin-3-yl)-N-ethyl-N-methylacetamide] | – | – | – | – | – | – | – | – | – | – | – | – | – | – | – | 2.34 ± 0.07 | 1390 nM | 54.8 nM
